Key:
squalene synthase [1] = biological target: T1, squalene synthase (Saccharomyces cerevisiae, UniProt P29704); assay: Squalene synthase assay, yeast enzyme; format: biochemical, S. cerevisiae W303-1A; conditions: yeast enzyme preparation; 12 min preincubation, 12 min reaction at 30 °C; read-out: Squalene Synthase Inhibition IC50 Yeast Enzyme (converted)
T1 construct: The pellet fractions were suspended at 10-20 mg/ml protein in breakage buffer containing 25% glycerol; endogenous in cells; host or cells: S. cerevisiae W303-1A
T1 sequence (P29704 1-444): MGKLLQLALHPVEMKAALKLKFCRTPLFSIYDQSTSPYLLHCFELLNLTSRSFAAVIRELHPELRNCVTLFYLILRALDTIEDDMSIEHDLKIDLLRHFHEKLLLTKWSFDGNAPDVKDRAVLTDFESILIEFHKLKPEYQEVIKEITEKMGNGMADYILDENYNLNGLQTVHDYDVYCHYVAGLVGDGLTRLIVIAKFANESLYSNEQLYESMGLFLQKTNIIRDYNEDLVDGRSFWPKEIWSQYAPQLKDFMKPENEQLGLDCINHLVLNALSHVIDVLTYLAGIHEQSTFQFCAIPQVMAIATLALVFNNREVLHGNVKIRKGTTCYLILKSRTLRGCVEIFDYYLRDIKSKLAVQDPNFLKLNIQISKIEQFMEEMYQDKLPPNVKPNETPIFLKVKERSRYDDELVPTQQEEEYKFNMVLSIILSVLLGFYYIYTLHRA
Procedure: (§1) The intrinsic squalene synthase inhibitory activity of representative compounds of this invention was measured by the standard in vitro protocol described below:
S. cerevisiae W303-1A (MATa ade2-1 canl-100 his3-11,15 leu2-3,112 trp1-1 ura3-1) was grown at 30 ° C for 24 hours in YPD medium ([…], 2% glucose) supplemented with 20 µg/mL adenine. The cells were washed and resuspended in a minimal volume of breakage buffer (100 mM KP04, pH 7.4, 3 mM DTT, 1 mM PMSF). The cells were added to the small chamber of the Bead-Beater Cell Disrupter (Biospec Products, Bartlesville, OK) containing 100 g of 0.5 mm glass beads. Buffer was added to fill the chamber. The sealed chamber was packed in ice and processed for 4 cycles of 30 sec with 2 min. cooling between cycles. Cell breakage was determined to be >90% by phase-contrast microscopy. The glass beads were removed by Whatman filter paper and the filtrate collected into an ice- immersed filter flask. The extract was centrifuged at 1500 x g for 10 min at 4°C. The pellet (P1) containing unbroken cells and cell walls was discarded. The supernatant (S1) was centrifuged at 30000 x g for 30 min at 4°C. The pellet (P2) contained about two-thirds of the total squalene synthase activity. The supernatant (S2) can be centrifuged at 100,000 x g for 60 min at 4°C to pellet the remaining activity (P3). The pellet fractions were suspended at 10-20 mg/ml protein in breakage buffer containing 25% glycerol. The activity was stable for several months at -80 ° C.
(§2) Reactions were performed in 1.2 mL polypropylene tube strips of eight. […] The reaction product was extracted with 0.4 mL heptane containing 0.4 µL carrier squalene 0.2 mL of the heptane extract was counted by liquid scintillation. […]
(§3) Percent inhibition is calculated by the formula: [formula]
lC50 values were determined by plotting the log of the concentration of the test compound versus the percentage inhibition. […]

Farnesyl Transferase = Farnesyl Transferase (Homo sapiens, UniProt P49356); assay: Farnesyl-transferase assay (inhibition of Ras farnesylation in vitro); format: biochemical; conditions: ras-CVLS 3 μM, 60 min at room temperature
Procedure: FARNESYL-TRANSFERASE ASSAY
100 µL of 0.5 M DTT was added to 900 µL of 1.1 M HEPES, pH 7.5 and 55.5 mM MgCl2 to yield a 10X buffer consisting of 1.0 M HEPES, pH 7.5, 50 mM MgCl2 and 50 mM DTT.
The reaction mix was prepared as below:
A Blank reaction mix was also prepared with the negative control ras-protein, and the Total/Sample reaction mix received the ras-CVLS. The same volumes were used to prepare the Blank reaction mix as those in Table 1.
The farnesyl trasferase solution was prepared as shown below. The farnesyl transferase mix was prepared right before use.
• i. The assay volume was 100 µL, the volume of sample to be tested was 5 µL and the time of incubation is 60 min at room temperature. • ii. The TECAN 8000/505, an automatic pipetting station, added 50 µL of water plus 5 µL of sample to the assay tubes. • iii. The ras-CVLS reaction mix (20 µL) was manually added to totals and unknowns. The negative control ras-protein reaction mix (20 µL) was manually added to the blank tubes. • iv. The farnesyl transferase mix (25 µL) was manually added to all tubes to initiate the reaction and the assay tubes were kept at room temperature for 60 min. • v. The assay was stopped placing the assay tubes in an ice bath for 5 minutes. • vi. 1.0 mL of 1.0 M HCI in 100% ethanol was then added to each tube. The assay tubes (uncapped) were incubated at 37 ° C for 60 min. to facilitate the hydrolysis of the FPP. • vii. Assay tubes were harvested through a TOMTEC 96-well harvestor (6 x 16 with extended tips, or SKATRON cell harvestor) onto LKB double thickness filter mats. • viii. The cell harvestor was adjusted so that each well was washed with 10 mL of 100% ethanol. • ix. Filter mats were baked in microwave oven for 6-8 min. to dry the filtermats. • x. The filter mats were placed in counting bags, 30 mL of LKB ,8-scint cocktail was added and the filter mats were counted for 120 sec. in the LKB β-plate counter.
Percent inhibition was calculated according to the following equation: [formula] […]

squalene synthase [2] = biological target: T2, squalene synthase (Homo sapiens, UniProt P37268); assay: Squalene synthase assay, HepG2 cell enzyme; format: biochemical; conditions: HepG2 enzyme preparation; 12 min preincubation, 12 min reaction at 30 °C; read-out: Squalene Synthase Inhibition IC50 HepG2 Enzyme (converted)
T2 construct: The HepG2 enzyme preparation was centrifuged at 34,000 rpm to separate the cytosol and microsomal enzymes; host or cells: HepG2
T2 sequence (P37268 1-417): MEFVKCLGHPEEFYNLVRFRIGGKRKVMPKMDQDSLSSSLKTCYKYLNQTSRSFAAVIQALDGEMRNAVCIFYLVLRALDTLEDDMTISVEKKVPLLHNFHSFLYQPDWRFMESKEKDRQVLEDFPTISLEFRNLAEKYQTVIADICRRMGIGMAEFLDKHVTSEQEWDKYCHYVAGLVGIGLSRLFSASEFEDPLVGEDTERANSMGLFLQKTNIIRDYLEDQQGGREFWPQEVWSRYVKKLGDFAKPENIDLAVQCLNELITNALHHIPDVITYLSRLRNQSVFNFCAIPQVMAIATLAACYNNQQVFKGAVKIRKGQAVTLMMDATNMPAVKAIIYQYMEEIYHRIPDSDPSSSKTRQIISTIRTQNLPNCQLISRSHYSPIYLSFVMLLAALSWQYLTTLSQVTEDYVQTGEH
Procedure: as §1
1. SOURCE: HEPG2 CELL LINE (Liver, hepatoblastoma, Human) ATCC No. HB 8065
Culture Medium: Minimum essential medium (MEM) with non-essential amino acids, sodium pyruvate, and 10% fetal bovine serum. The medium was changed twice weekly. […] The growth medium was prepared as listed below.
SUBCULTURE PROCEDURE: The medium was removed and washed with PBS (Phosphate-Buffered Saline 15.6 mM, pH 7.0). Fresh trypsin (0.25%)-EDTA (0.02%) with Hank's Balanced Salt solution was added and the flask was allowed to stand for a minute before the trypsin solution was removed. The flask was incubated at 370 C until cells detached. Fresh medium was added and the cells were dispersed and dispensed into new flasks. Subcultivation ratio: 1:6.
PREPARATION OF DELIPIDATED SERUM: Fetal calf serum (100 ml) and CAB-O-Sil (2 grams) were stirred overnight at 4°C and centrifuged at 16,000 rpm for 5 hrs. The supernantant was filtered and the serum was stored at 4 C.
48 hrs. prior to harvest, cells grown in MEM with 10% Fetal Calf serum were switched to MEM with 10% delipidated serum.
HARVEST: The medium was removed and the cells were washed with PBS. Fresh trypsin (0.25%)-EDTA (0.02%) with Hanks' Balanced Salt solution was added and allowed to stand and removed. The flask was incubated at 37 C until the cells detached. MEM medium (6 mL/flask) was added to suspend cells and combined into a centrifuge tube. […] Cells were counted ([…] yield from 18 flasks (75 cm^2)), and resuspended in 10 mL of 50mM HEPES (N-[2-Hydroxyethyl]piperazine-N'-[2-ethane-sulfonic acid]) containing 5mM MgCI2, 2mM MnCI2, 10mM DTT, pH 7.5 (enzyme suspension buffer). […]
as §2
Percent inhibition is calculated by the formula: [formula] […]

squalene synthase [3] = biological target: T3, squalene synthase (Rattus norvegicus, UniProt Q02769); assay: Squalene synthase assay, rat liver microsomes; format: biochemical, rats; conditions: [4-14C]farnesyl-pyrophosphate, 20 minutes at 30 °C
T3 construct: from tissue; host or cells: liver microsomes of male Charles River CD rats fed 0.1% lovastatin
T3 sequence (Q02769 1-416): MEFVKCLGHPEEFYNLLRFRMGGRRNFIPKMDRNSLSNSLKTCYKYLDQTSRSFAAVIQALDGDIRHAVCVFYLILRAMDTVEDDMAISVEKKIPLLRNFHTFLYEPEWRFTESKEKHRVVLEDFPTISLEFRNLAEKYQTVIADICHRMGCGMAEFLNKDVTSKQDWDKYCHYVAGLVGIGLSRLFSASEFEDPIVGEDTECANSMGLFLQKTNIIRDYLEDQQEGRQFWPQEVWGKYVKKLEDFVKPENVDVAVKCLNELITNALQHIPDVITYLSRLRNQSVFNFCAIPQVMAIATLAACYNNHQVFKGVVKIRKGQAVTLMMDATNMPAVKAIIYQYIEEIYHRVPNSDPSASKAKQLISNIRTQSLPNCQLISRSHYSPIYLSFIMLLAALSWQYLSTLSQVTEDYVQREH
Procedure: Alternatively, the intrinsic squalene synthase inhibitory activity of the compounds formed in the fermentation of the microorganisms of the present invention may be measured by the standard in vitro protocol described below:
Male, CHARLES RIVER@ CD rats (120 to 150 g) were fed a diet containing 0.1% lovastatin for 4 days. The livers from these rats were homogenized in 5 volumes (mL/g) of ice cold 50 mM HEPES (4-(2-hydroxyethyl)-1-piperazine-ethanesulfonic acid), 5 mM EDTA(ethylenediaminetetraacetic acid) pH 7.5 with a Potter-Elvehjem type tissue grinder. The homogenate was centrifuged twice at 20,000 x g for 15 min. at 4°C, discarding the pellet each time. The supernatant was then centrifuged at 100,000 x g for 1 hr at 4°C. The resulting microsomal pellet was resuspended in a volume of the above homogenizing buffer equal to one-fifth the volume of the original homogenate. This microsomal preparation has a protein concentration of about 7 mg/mL. The microsomal suspensions were stored in aliquots at -70 °C. Squalene synthase activity in these aliquots is stable for a least several months. […]
This assay mix was degassed under a vacuum and flushed with N2. […] Ten mL of scintillation fluid was added to the heptane solution and radioactivity was determined by liquid scintillation counting.
as §3

Structure (SMILES) | IC50 (squalene synthase [1]) [µM] | IC50 (Farnesyl Transferase) [µM] | IC50 (squalene synthase [2]) [µM] | IC50 (squalene synthase [3]) [µM]
CCCCCCCC(=O)CCCCCC/C=C/C(C(=O)NC(Cc1ccccc1)C(=O)O)C(O)(CC(=O)O)C(=O)O (stereo not shown) [Compound C] | 1.74 | 4.5 | 33.5 | 
CCCCCCCC(=O)CCCCCC/C=C/C(C(=O)NC(Cc1c[nH]c2ccccc12)C(=O)O)C(O)(CC(=O)O)C(=O)O (stereo not shown) [Compound D] | 0.358 | 3.3 | 0.472 | 
CCCCCCCC(=O)CCCCCC/C=C/C(C(=O)NC(Cc1ccc(O)cc1)C(=O)O)C(O)(CC(=O)O)C(=O)O (stereo not shown) [Compound A] | 12.7 | 8 | 70.3 | 15

From patent EP0526936A2, “Cholesterol-lowering agents” (MERCK & CO. INC., priority 1991, dated 1993)
